Measurements published in the NIST ThermoML archive (doi:10.1016/j.jct.2018.11.004).

Assay: molar heat capacity at constant pressure

CC(C)[C@@H]1CC[C@@H](C)C[C@H]1O [L-menthol]
Details	molar heat capacity at constant pressure [J/K/mol]
5 K, 101.33 kPa, Crystal 1, Small (less than 1 g) adiabatic calorimetry	0.858
10 K, 101.33 kPa, Crystal 1, Small (less than 1 g) adiabatic calorimetry	5.528
15 K, 101.33 kPa, Crystal 1, Small (less than 1 g) adiabatic calorimetry	12.7
20 K, 101.33 kPa, Crystal 1, Small (less than 1 g) adiabatic calorimetry	20.26
25 K, 101.33 kPa, Crystal 1, Small (less than 1 g) adiabatic calorimetry	27.36
30 K, 101.33 kPa, Crystal 1, Small (less than 1 g) adiabatic calorimetry	33.65
35 K, 101.33 kPa, Crystal 1, Small (less than 1 g) adiabatic calorimetry	39.12
40 K, 101.33 kPa, Crystal 1, Small (less than 1 g) adiabatic calorimetry	44.06
45 K, 101.33 kPa, Crystal 1, Small (less than 1 g) adiabatic calorimetry	48.69
50 K, 101.33 kPa, Crystal 1, Small (less than 1 g) adiabatic calorimetry	53.14
55 K, 101.33 kPa, Crystal 1, Small (less than 1 g) adiabatic calorimetry	57.47
60 K, 101.33 kPa, Crystal 1, Small (less than 1 g) adiabatic calorimetry	61.81
65 K, 101.33 kPa, Crystal 1, Small (less than 1 g) adiabatic calorimetry	66.15
70 K, 101.33 kPa, Crystal 1, Small (less than 1 g) adiabatic calorimetry	70.48
75 K, 101.33 kPa, Crystal 1, Small (less than 1 g) adiabatic calorimetry	74.81
80 K, 101.33 kPa, Crystal 1, Small (less than 1 g) adiabatic calorimetry	79.11
85 K, 101.33 kPa, Crystal 1, Small (less than 1 g) adiabatic calorimetry	83.38
90 K, 101.33 kPa, Crystal 1, Small (less than 1 g) adiabatic calorimetry	87.62
95 K, 101.33 kPa, Crystal 1, Small (less than 1 g) adiabatic calorimetry	91.81
100 K, 101.33 kPa, Crystal 1, Small (less than 1 g) adiabatic calorimetry	95.95
105 K, 101.33 kPa, Crystal 1, Small (less than 1 g) adiabatic calorimetry	100
110 K, 101.33 kPa, Crystal 1, Small (less than 1 g) adiabatic calorimetry	104
115 K, 101.33 kPa, Crystal 1, Small (less than 1 g) adiabatic calorimetry	108
120 K, 101.33 kPa, Crystal 1, Small (less than 1 g) adiabatic calorimetry	111.8
125 K, 101.33 kPa, Crystal 1, Small (less than 1 g) adiabatic calorimetry	115.7
130 K, 101.33 kPa, Crystal 1, Small (less than 1 g) adiabatic calorimetry	119.4
135 K, 101.33 kPa, Crystal 1, Small (less than 1 g) adiabatic calorimetry	123.1
140 K, 101.33 kPa, Crystal 1, Small (less than 1 g) adiabatic calorimetry	126.8
145 K, 101.33 kPa, Crystal 1, Small (less than 1 g) adiabatic calorimetry	130.4
150 K, 101.33 kPa, Crystal 1, Small (less than 1 g) adiabatic calorimetry	134
155 K, 101.33 kPa, Crystal 1, Small (less than 1 g) adiabatic calorimetry	137.5
160 K, 101.33 kPa, Crystal 1, Small (less than 1 g) adiabatic calorimetry	141.1
165 K, 101.33 kPa, Crystal 1, Small (less than 1 g) adiabatic calorimetry	144.6
170 K, 101.33 kPa, Crystal 1, Small (less than 1 g) adiabatic calorimetry	148.1
175 K, 101.33 kPa, Crystal 1, Small (less than 1 g) adiabatic calorimetry	151.6
180 K, 101.33 kPa, Crystal 1, Small (less than 1 g) adiabatic calorimetry	155.1
185 K, 101.33 kPa, Crystal 1, Small (less than 1 g) adiabatic calorimetry	158.6
190 K, 101.33 kPa, Crystal 1, Small (less than 1 g) adiabatic calorimetry	162.2
195 K, 101.33 kPa, Crystal 1, Small (less than 1 g) adiabatic calorimetry	165.7
200 K, 101.33 kPa, Crystal 1, Small (less than 1 g) adiabatic calorimetry	169.3
205 K, 101.33 kPa, Crystal 1, Small (less than 1 g) adiabatic calorimetry	172.8
210 K, 101.33 kPa, Crystal 1, Small (less than 1 g) adiabatic calorimetry	176.4
215 K, 101.33 kPa, Crystal 1, Small (less than 1 g) adiabatic calorimetry	180
220 K, 101.33 kPa, Crystal 1, Small (less than 1 g) adiabatic calorimetry	183.7
225 K, 101.33 kPa, Crystal 1, Small (less than 1 g) adiabatic calorimetry	187.4
230 K, 101.33 kPa, Crystal 1, Small (less than 1 g) adiabatic calorimetry	191.1
235 K, 101.33 kPa, Crystal 1, Small (less than 1 g) adiabatic calorimetry	194.9
240 K, 101.33 kPa, Crystal 1, Small (less than 1 g) adiabatic calorimetry	198.7
245 K, 101.33 kPa, Crystal 1, Small (less than 1 g) adiabatic calorimetry	202.5
250 K, 101.33 kPa, Crystal 1, Small (less than 1 g) adiabatic calorimetry	206.5
255 K, 101.33 kPa, Crystal 1, Small (less than 1 g) adiabatic calorimetry	210.7
260 K, 101.33 kPa, Crystal 1, Small (less than 1 g) adiabatic calorimetry	215.1
265 K, 101.33 kPa, Crystal 1, Small (less than 1 g) adiabatic calorimetry	219.5
265.2 K, 100 kPa, Crystal 1, Extra sensitive DSC	221.5
270 K, 100 kPa, Crystal 1, Extra sensitive DSC	225.6
270 K, 101.33 kPa, Crystal 1, Small (less than 1 g) adiabatic calorimetry	223.9
275 K, 100 kPa, Crystal 1, Extra sensitive DSC	230
275 K, 101.33 kPa, Crystal 1, Small (less than 1 g) adiabatic calorimetry	228.2
280 K, 100 kPa, Crystal 1, Extra sensitive DSC	235.1
280 K, 101.33 kPa, Crystal 1, Small (less than 1 g) adiabatic calorimetry	232.4
285 K, 100 kPa, Crystal 1, Extra sensitive DSC	240.5
285 K, 101.33 kPa, Crystal 1, Small (less than 1 g) adiabatic calorimetry	236.7
290 K, 100 kPa, Crystal 1, Extra sensitive DSC	246.3
290 K, 101.33 kPa, Crystal 1, Small (less than 1 g) adiabatic calorimetry	241.5
295 K, 100 kPa, Crystal 1, Extra sensitive DSC	253.1
295 K, 101.33 kPa, Crystal 1, Small (less than 1 g) adiabatic calorimetry	246.7
298.15 K, 101.33 kPa, Crystal 1, Small (less than 1 g) adiabatic calorimetry	250.1
300 K, 101.33 kPa, Crystal 1, Small (less than 1 g) adiabatic calorimetry	252.3
305 K, 101.33 kPa, Crystal 1, Small (less than 1 g) adiabatic calorimetry	258.3
310 K, 101.33 kPa, Crystal 1, Small (less than 1 g) adiabatic calorimetry	264.6
315 K, 101.33 kPa, Crystal 1, Small (less than 1 g) adiabatic calorimetry	271.4
315.6 K, 101.33 kPa, Crystal 1, Small (less than 1 g) adiabatic calorimetry	272.3

Liquid
Details	molar heat capacity at constant pressure [J/K/mol]
315.6 K, 101.33 kPa, Small (less than 1 g) adiabatic calorimetry	376.1
320 K, 101.33 kPa, Small (less than 1 g) adiabatic calorimetry	383.1
325 K, 101.33 kPa, Small (less than 1 g) adiabatic calorimetry	390.8
325.9 K, 100 kPa, Extra sensitive DSC	395.1
330 K, 100 kPa, Extra sensitive DSC	401.1
330 K, 101.33 kPa, Small (less than 1 g) adiabatic calorimetry	398.1
335 K, 100 kPa, Extra sensitive DSC	408
335 K, 101.33 kPa, Small (less than 1 g) adiabatic calorimetry	404.9
340 K, 100 kPa, Extra sensitive DSC	414.3
340 K, 101.33 kPa, Small (less than 1 g) adiabatic calorimetry	411.3
345 K, 100 kPa, Extra sensitive DSC	420.5
345 K, 101.33 kPa, Small (less than 1 g) adiabatic calorimetry	417.1
350 K, 100 kPa, Extra sensitive DSC	426.2
350 K, 101.33 kPa, Small (less than 1 g) adiabatic calorimetry	422.3
355 K, 100 kPa, Extra sensitive DSC	430.8
355 K, 101.33 kPa, Small (less than 1 g) adiabatic calorimetry	427
360 K, 101.33 kPa, Small (less than 1 g) adiabatic calorimetry	431
365 K, 101.33 kPa, Small (less than 1 g) adiabatic calorimetry	434.3
370 K, 101.33 kPa, Small (less than 1 g) adiabatic calorimetry	437
